In patent US6287813A, “Antibiotic-based gene regulation system” (Cistronics Cell Technology GmbH, priority 1999, dated 2001):

Target: T1, PIT3/PPIR ON (Streptomyces coelicolor, UniProt Q9ADN3)
T1 construct: pMF207 with pMF208 in CHO-K1
T1 sequence (Q9ADN3 1-252): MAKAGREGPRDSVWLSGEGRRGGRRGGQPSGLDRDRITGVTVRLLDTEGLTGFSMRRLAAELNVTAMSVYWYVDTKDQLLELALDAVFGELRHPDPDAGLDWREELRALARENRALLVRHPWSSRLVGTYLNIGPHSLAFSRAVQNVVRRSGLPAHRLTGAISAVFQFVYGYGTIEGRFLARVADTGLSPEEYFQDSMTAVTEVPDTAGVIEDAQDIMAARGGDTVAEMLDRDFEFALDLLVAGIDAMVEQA
Test: PipON SEAP assay, CHO-K1 cotransfected with pMF208 (PPIR ON-SEAP) and pMF207 (PIT3; Pip-KRAB)
Format: cell-based
Text: The Classical PIT/PPIR system belongs to the "OFF" family of regulation concepts since gene expression is activated upon withdrawal of the regulating antibiotic. However, in some applications such as gene therapy and tissue engineering an "ON" system which is induced upon addition of streptogramin antibiotics is more desirable. We therefore constructed a new Pip-based binary PION system which consists of a PPIR ON promoter and a set of two different transrepressors. PPIR ON consists of a PIR3 module containing 3 consecutive Pip binding elements (SEQ ID NO:21; Example 3) placed in front of the strong viral SV40 promoter. Transrepressors such as PIT3, which consists of a protein fusion between Pip and the KRAB silencing domain of the human kox-1 gene (Deuschle et al., 1995, Mol. Cell Biol. 15: 1907-1914) and PIT4, which is simply Pip expressed in a eukaryotic configuration, bind to PIR3 in front of PSV40 and block transcription of this promoter. Besides sterical transcription blocking the silencing domain of PIT3 can additionally downregulate PSV40 activity. […]
Table 9: Comparison of the regulation characteristics of the PipON systems. CHO-K1 cells were simultaneously cotransfected with the plasmids indicated and the SEAP readout (slope a of the p-nitrophenolphosphate-based light absorbance time courses) was determined in the presence and absence of pristinamycin 48 hr post transfection. […]

For pristinamycin I [PI], the “SEAP readout (slope of the p-nitrophenolphosphate-based light absorbance time courses)” value (+PI (2 μg/ml) column, CHO + pMF208 + pMF207, 48 hr post transfection) was 0.00055 ± 0.0003 and the Induction factor (PIT3-PPIR ON configuration, 2880 min) was “about 150”.
